Measured values as given in PubChem BioAssay (NCI).
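Assay format: 96-well plates, 48-hour exposure. TGI: concentration producing complete growth inhibition.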

Columns and labels:
Test in all cases: inhibition of tumour cell growth, NCI panel, 48 h
MDA-N = system: MDA-N
SF-295 CNS = system: SF-295 CNS
SK-MEL-5 melanoma = system: SK-MEL-5 melanoma
HCT-116 colon = system: HCT-116 colon
786-0 renal = system: 786-0 renal
SW-620 colon = system: SW-620 colon
NCI/ADR-RES ovarian = system: NCI/ADR-RES ovarian
SK-OV-3 ovarian = system: SK-OV-3 ovarian
HS 578T breast = system: HS 578T breast
PC-3 prostate = system: PC-3 prostate
MDA-MB-231 breast = system: MDA-MB-231 breast
SK-MEL-2 melanoma = system: SK-MEL-2 melanoma
SN12C renal = system: SN12C renal
MOLT-4 leukemia = system: MOLT-4 leukemia
LOX IMVI melanoma = system: LOX IMVI melanoma
MALME-3M melanoma = system: MALME-3M melanoma
EKVX NSCLC = system: EKVX NSCLC
MCF7 breast = system: MCF7 breast
A549 NSCLC = system: A549 NSCLC
SF-539 CNS = system: SF-539 CNS
OVCAR-5 ovarian = system: OVCAR-5 ovarian
HOP-92 NSCLC = system: HOP-92 NSCLC
K-562 leukemia = system: K-562 leukemia
CAKI-1 renal = system: CAKI-1 renal
UACC-257 melanoma = system: UACC-257 melanoma
IGROV1 ovarian = system: IGROV1 ovarian
M14 melanoma = system: M14 melanoma
OVCAR-3 ovarian = system: OVCAR-3 ovarian
HCC-2998 colon = system: HCC-2998 colon
HCT-15 colon = system: HCT-15 colon
A498 renal = system: A498 renal
HT29 colon = system: HT29 colon
NCI-H460 lung = system: NCI-H460 lung
OVCAR-8 ovarian = system: OVCAR-8 ovarian
DU-145 prostate = system: DU-145 prostate
RXF 393 renal = system: RXF 393 renal
NCI-H226 lung = system: NCI-H226 lung
SR leukemia = system: SR leukemia
ACHN renal = system: ACHN renal
KM12 colon = system: KM12 colon
T-47D breast = system: T-47D breast
MDA-MB-435 = system: MDA-MB-435
SK-MEL-28 melanoma = system: SK-MEL-28 melanoma
SF-268 CNS = system: SF-268 CNS
NCI-H23 lung = system: NCI-H23 lung
OVCAR-4 ovarian = system: OVCAR-4 ovarian
U251 CNS = system: U251 CNS
UO-31 renal = system: UO-31 renal
NCI-H522 lung = system: NCI-H522 lung
HOP-62 NSCLC = system: HOP-62 NSCLC
BT-549 breast = system: BT-549 breast
CCRF-CEM leukemia = system: CCRF-CEM leukemia
UACC-62 melanoma = system: UACC-62 melanoma
SNB-19 CNS = system: SNB-19 CNS
SNB-75 CNS = system: SNB-75 CNS
COLO 205 colon = system: COLO 205 colon
TK-10 renal = system: TK-10 renal
RPMI-8226 leukemia = system: RPMI-8226 leukemia
HL-60(TB) leukemia = system: HL-60(TB) leukemia

COc1cc2c(cc1OCc1ccccc1)NC(=O)[C@@H]1CCCN1C2=O
TGI (MDA-N): > 100 µM
TGI (SF-295 CNS): > 100 µM
TGI (SK-MEL-5 melanoma): > 100 µM
TGI (HCT-116 colon): > 100 µM
TGI (786-0 renal): > 100 µM
TGI (SW-620 colon): > 100 µM
TGI (NCI/ADR-RES ovarian): > 100 µM
TGI (SK-OV-3 ovarian): > 100 µM
TGI (HS 578T breast): > 100 µM
TGI (PC-3 prostate): > 100 µM
TGI (MDA-MB-231 breast): > 100 µM
TGI (SK-MEL-2 melanoma): > 100 µM
TGI (SN12C renal): > 100 µM
TGI (MOLT-4 leukemia): > 100 µM
TGI (LOX IMVI melanoma): > 100 µM
TGI (MALME-3M melanoma): > 100 µM
TGI (EKVX NSCLC): > 100 µM
TGI (MCF7 breast): > 100 µM
TGI (A549 NSCLC): > 100 µM
TGI (SF-539 CNS): > 100 µM
TGI (OVCAR-5 ovarian): > 100 µM
TGI (HOP-92 NSCLC): > 100 µM
TGI (K-562 leukemia): > 100 µM
TGI (CAKI-1 renal): > 100 µM
TGI (UACC-257 melanoma): > 100 µM
TGI (IGROV1 ovarian): > 100 µM
TGI (M14 melanoma): > 100 µM
TGI (OVCAR-3 ovarian): > 100 µM
TGI (HCC-2998 colon): > 100 µM
TGI (HCT-15 colon): > 100 µM
TGI (A498 renal): > 100 µM
TGI (HT29 colon): > 100 µM
TGI (NCI-H460 lung): > 100 µM
TGI (OVCAR-8 ovarian): > 100 µM
TGI (DU-145 prostate): > 100 µM
TGI (RXF 393 renal): > 100 µM
TGI (NCI-H226 lung): > 100 µM
TGI (SR leukemia): > 100 µM
TGI (ACHN renal): > 100 µM
TGI (KM12 colon): > 100 µM
TGI (T-47D breast): > 100 µM
TGI (MDA-MB-435): > 100 µM
TGI (SK-MEL-28 melanoma): > 100 µM
TGI (SF-268 CNS): > 100 µM
TGI (NCI-H23 lung): > 100 µM
TGI (OVCAR-4 ovarian): > 100 µM
TGI (U251 CNS): > 100 µM
TGI (UO-31 renal): > 100 µM
TGI (NCI-H522 lung): > 100 µM
TGI (HOP-62 NSCLC): > 100 µM
TGI (BT-549 breast): > 100 µM
TGI (CCRF-CEM leukemia): > 100 µM
TGI (UACC-62 melanoma): > 100 µM
TGI (SNB-19 CNS): > 100 µM
TGI (SNB-75 CNS): > 100 µM
TGI (COLO 205 colon): > 100 µM
TGI (TK-10 renal): > 100 µM
TGI (RPMI-8226 leukemia): > 100 µM

Cc1cccc2c1CC(Cc1ccccc1C(=O)O)C2=O (centres undefined)
TGI (MDA-N): > 100 µM
TGI (SF-295 CNS): > 100 µM
TGI (SK-MEL-5 melanoma): > 100 µM
TGI (HCT-116 colon): > 100 µM
TGI (786-0 renal): > 100 µM
TGI (SW-620 colon): > 100 µM
TGI (NCI/ADR-RES ovarian): > 100 µM
TGI (SK-OV-3 ovarian): > 100 µM
TGI (HS 578T breast): > 100 µM
TGI (PC-3 prostate): > 100 µM
TGI (MDA-MB-231 breast): > 100 µM
TGI (SK-MEL-2 melanoma): > 100 µM
TGI (SN12C renal): > 100 µM
TGI (MOLT-4 leukemia): > 100 µM
TGI (LOX IMVI melanoma): > 100 µM
TGI (MALME-3M melanoma): > 100 µM
TGI (EKVX NSCLC): > 100 µM
TGI (MCF7 breast): > 100 µM
TGI (A549 NSCLC): > 100 µM
TGI (SF-539 CNS): > 100 µM
TGI (OVCAR-5 ovarian): > 100 µM
TGI (HOP-92 NSCLC): > 100 µM
TGI (K-562 leukemia): > 100 µM
TGI (CAKI-1 renal): > 100 µM
TGI (UACC-257 melanoma): > 100 µM
TGI (IGROV1 ovarian): > 100 µM
TGI (M14 melanoma): > 100 µM
TGI (OVCAR-3 ovarian): > 100 µM
TGI (HCC-2998 colon): > 100 µM
TGI (HCT-15 colon): > 100 µM
TGI (HT29 colon): > 100 µM
TGI (NCI-H460 lung): > 100 µM
TGI (OVCAR-8 ovarian): > 100 µM
TGI (DU-145 prostate): > 100 µM
TGI (RXF 393 renal): > 100 µM
TGI (HL-60(TB) leukemia): > 100 µM
TGI (NCI-H226 lung): > 100 µM
TGI (SR leukemia): > 100 µM
TGI (ACHN renal): > 100 µM
TGI (KM12 colon): > 100 µM
TGI (T-47D breast): > 100 µM
TGI (MDA-MB-435): > 100 µM
TGI (SK-MEL-28 melanoma): > 100 µM
TGI (SF-268 CNS): > 100 µM
TGI (NCI-H23 lung): > 100 µM
TGI (OVCAR-4 ovarian): > 100 µM
TGI (U251 CNS): > 100 µM
TGI (UO-31 renal): > 100 µM
TGI (NCI-H522 lung): > 100 µM
TGI (HOP-62 NSCLC): > 100 µM
TGI (BT-549 breast): > 100 µM
TGI (CCRF-CEM leukemia): > 100 µM
TGI (UACC-62 melanoma): > 100 µM
TGI (SNB-19 CNS): > 100 µM
TGI (SNB-75 CNS): > 100 µM
TGI (COLO 205 colon): > 100 µM
TGI (TK-10 renal): > 100 µM
TGI (RPMI-8226 leukemia): > 100 µM

CCOC(=O)[C@@H](Cc1ccc(CCl)cc1)NC(C)=O
TGI (MDA-N): 40.2 µM
TGI (SF-295 CNS): > 100 µM
TGI (SK-MEL-5 melanoma): 31.5 µM
TGI (HCT-116 colon): > 100 µM
TGI (786-0 renal): 40.4 µM
TGI (SW-620 colon): > 100 µM
TGI (NCI/ADR-RES ovarian): 43.9 µM
TGI (SK-OV-3 ovarian): > 100 µM
TGI (HS 578T breast): 60.8 µM
TGI (PC-3 prostate): > 100 µM
TGI (MDA-MB-231 breast): 81.6 µM
TGI (SK-MEL-2 melanoma): 39.6 µM
TGI (SN12C renal): 49.6 µM
TGI (MOLT-4 leukemia): > 100 µM
TGI (LOX IMVI melanoma): 37 µM
TGI (MALME-3M melanoma): 37.7 µM
TGI (EKVX NSCLC): 54.9 µM
TGI (MCF7 breast): 83.5 µM
TGI (A549 NSCLC): > 100 µM
TGI (SF-539 CNS): 36.4 µM
TGI (OVCAR-5 ovarian): 44.2 µM
TGI (HOP-92 NSCLC): 43.6 µM
TGI (K-562 leukemia): > 100 µM
TGI (CAKI-1 renal): 68.6 µM
TGI (UACC-257 melanoma): 40.2 µM
TGI (IGROV1 ovarian): 51.2 µM
TGI (M14 melanoma): 89.3 µM
TGI (OVCAR-3 ovarian): > 100 µM
TGI (HCC-2998 colon): 40.4 µM
TGI (HCT-15 colon): 94.1 µM
TGI (HT29 colon): > 100 µM
TGI (NCI-H460 lung): 43.2 µM
TGI (OVCAR-8 ovarian): > 100 µM
TGI (DU-145 prostate): > 100 µM
TGI (RXF 393 renal): 30.3 µM
TGI (HL-60(TB) leukemia): 70.7 µM
TGI (NCI-H226 lung): 98.5 µM
TGI (SR leukemia): > 100 µM
TGI (ACHN renal): 43.5 µM
TGI (KM12 colon): 40.5 µM
TGI (T-47D breast): 93.7 µM
TGI (MDA-MB-435): 48.7 µM
TGI (SK-MEL-28 melanoma): 86.2 µM
TGI (SF-268 CNS): 67 µM
TGI (NCI-H23 lung): 68.3 µM
TGI (OVCAR-4 ovarian): 41.1 µM
TGI (U251 CNS): 40.5 µM
TGI (UO-31 renal): 36.4 µM
TGI (NCI-H522 lung): 35.5 µM
TGI (HOP-62 NSCLC): 75.1 µM
TGI (BT-549 breast): > 100 µM
TGI (CCRF-CEM leukemia): > 100 µM
TGI (UACC-62 melanoma): 31.5 µM
TGI (SNB-19 CNS): 79.2 µM
TGI (SNB-75 CNS): 59 µM
TGI (COLO 205 colon): 43.9 µM
TGI (TK-10 renal): 23.4 µM
TGI (RPMI-8226 leukemia): 88.4 µM
